Measured values as given in patent US9669036B2, “Modulation of reactivation of a latent virus” (priority 2013, dated 2017).

System: latent HSV-1(F)
Assay type: cell-based
Conditions: for lowest effective concentration: activation of latent HSV; for lowest effective concentration / Significant Activation of Latent HSV: ganglionic organ cultures in medium containing NGF and EGF; for Significant Activation of Latent HSV: three concentrations tested; for accumulation of viral mRNAs with cycloheximide compared with the drug alone / amounts of the LAT and miRNAs in cycloheximide-treated ganglia compared with the drug alone: cycloheximide 150 μg/ml, TSA 400 nM or NSC74859 10 μM; for reactivation of HSV in trigeminal ganglia: ganglia harvested 30 days after infection, TSA 400 nM, MS275 or MC1568 10 μM, 20 μM
[1] = medium containing NGF and EGF, 24 h
[2] = NGF+EGF medium, 24 h, CTB 200 μM, 500 μM

Compound: Cn1c(=O)n(-c2ccc(C(C)(C)C#N)cc2)c2c3cc(-c4cnc5ccccc5c4)ccc3ncc21 [BEZ-235]
- lowest effective concentration (24 h): 40 nM lowest effective
- Significant Activation of Latent HSV (24 h after excision): Yes

Compound: CC(/C=C/C(=O)NO)=C\[C@@H](C)C(=O)c1ccc(N(C)C)cc1 [TSA, Trichostatin A]
- accumulation of viral mRNAs with cycloheximide compared with the drug alone (NGF+EGF medium, 24 h): similar
- amounts of the LAT and miRNAs in cycloheximide-treated ganglia compared with the drug alone (NGF+EGF medium, 24 h): higher
- accumulation of mRNAs relative to freshly excised ganglia (NGF+EGF+TSA (400 nM), with or without cycloheximide 150 μg/ml, 24 h): 10 fold
- reactivation of HSV in trigeminal ganglia [1]: induced the reactivation of HSV

Compound: NC1(c2ccc(-c3nc4ccn5c(=O)[nH]nc5c4cc3-c3ccccc3)cc2)CCC1 [MK-2206]
- lowest effective concentration (24 h): 2.5 nM lowest effective
- Significant Activation of Latent HSV (24 h after excision): Yes

Compound: CS(=O)(=O)N1CCN(Cc2cc3nc(-c4cccc5[nH]ncc45)nc(N4CCOCC4)c3s2)CC1 [GDC-0941]
- lowest effective concentration (24 h): 10 nM lowest effective
- Significant Activation of Latent HSV (24 h after excision): Yes

Compound: Cn1cc(/C=C/C(=O)c2cccc(F)c2)cc1/C=C/C(=O)NO [MC1568, (E)-3-(4-((E)-3-(3-fluorophenyl)-3-oxoprop-1-enyl)-1-methyl-1H-pyrrol-2-yl)-N-hydroxyacrylamide]
- reactivation of HSV in trigeminal ganglia [1]: induced the reactivation of HSV

Compound: Cc1ccc(S(=O)(=O)OCC(=O)Nc2ccc(C(=O)O)c(O)c2)cc1 [NSC74859]
- accumulation of viral mRNAs with cycloheximide compared with the drug alone (NGF+EGF medium, 24 h): consistently lower
- amounts of the LAT and miRNAs in cycloheximide-treated ganglia compared with the drug alone (NGF+EGF medium, 24 h): higher
- representatives of all four temporally regulated groups of viral genes (ICP27, TK, VP16, UL41 mRNAs) (NGF+EGF medium, 24 h after excision, NSC74859 10 mM and 50 μM): upregulated

Compound: CO[C@H]1C[C@@H]2CC[C@@H](C)[C@@](O)(O2)C(=O)C(=O)N2CCCC[C@H]2C(=O)O[C@H]([C@H](C)C[C@@H]2CC[C@@H](O)[C@H](OC)C2)CC(=O)[C@H](C)/C=C(\C)[C@@H](O)[C@@H](OC)C(=O)[C@H](C)C[C@H](C)/C=C/C=C/C=C/1C [Rapamycin]
- lowest effective concentration (24 h): 1 nM lowest effective

Compound: Nc1ccccc1NC(=O)c1ccc(CNC(=O)OCc2cccnc2)cc1 [MS275, pyridin-3-ylmethyl 4-((2-aminophenyl)carbamoyl)benzylcarbamate]
- reactivation of HSV in trigeminal ganglia [1]: induced the reactivation of HSV

Compound: Cc1sc2c(c1C)C(c1ccc(Cl)cc1)=N[C@@H](CC(=O)OC(C)(C)C)c1nnc(C)n1-2 [JQ1]
- Significant Activation of Latent HSV (24 h after excision): No

Compound: O=C(Nc1ccc2c(O)cc(S(=O)(=O)O)cc2c1)Nc1ccc2c(O)cc(S(=O)(=O)O)cc2c1 [AMI-1]
- Significant Activation of Latent HSV (24 h after excision): No
- Comments: activation of latent HSV (medium containing NGF and EGF, all concentrations tested): No activation

Compound: CCOc1ccccc1C(=O)Nc1ccc(Cl)c(C(F)(F)F)c1 [CTB, N-(4-Chloro-3-trifluoromethyl-phenyl)-2-ethoxy-benzamide]
- decrease of miRNAs and the LAT following exposure to the drug [2]: approximately 10 fold
- increase of all viral mRNAs following exposure to the drug [2]: approximately 50 fold

Compound: C[C@@H]1CCN(C(=O)CC#N)C[C@@H]1N(C)c1ncnc2[nH]ccc12 [Tofacitinib]
- Significant Activation of Latent HSV (24 h after excision): No

Compound: COc1cc2c(NC3CCN(C(C)C)CC3)nc(C3CCCCC3)nc2cc1OCCCN1CCCC1 [UNC0638]
- Significant Activation of Latent HSV (24 h after excision): No

Compound: COc1cc(/C=C/C(=O)CC(=O)/C=C/c2ccc(O)c(OC)c2)ccc1O [curcumin]
- reactivation of HSV and degradation of the LAT and miRNAs (curcumin 100 μM, 300 μM, 24 h, independent of medium (NGF+EGF or antibody to NGF)): blocked
- accumulation of the LAT (curcumin at the higher concentration (300 μM)): suppressed
- accumulation of small amounts of mRNAs normally detected at the time of excision of the ganglia (medium containing antibody to NGF, compared with freshly excised ganglia): suppressed

Compound: Cc1[nH]c2ccccc2c1CCNCc1ccc(/C=C/C(=O)NO)cc1 [Panobinostat]
- lowest effective concentration (24 h): 0.5 nM lowest effective
